Reference: US12415987B2, “Methods and composition for producing and using immune cells and stem cells for cell-based therapies” (Angeles Therapeutics, Inc., priority 2016, dated 2025)

Assays:
Type in all cases: cell-based, human
Pgp-expressing T cells = test: Photodynamic cell therapy with TH9402: Pgp+ T cells by DiOC2(3) efflux (and CD62L staining); settings: for % Pgp^+ cells (DiOC2(3)-dull): after 2 days
Protocol: (§1) T cells were isolated using PAN T-cell isolation kit (Miltenyi cat no. 130-096-535) from buffy coat preparation following Ficoll-Hypaque separation and RBC lysis as described above. 12 million T cells were resuspended at 1 million cells/ml in XVIVO T cell medium (Lonza) supplemented with 5 ng/ml IL7. Half (6 million) of the T cells were left untreated while the remaining half were treated with 10 μM of TH9402 compound. Cells were incubated at 37° C. in a water bath in dark for 40 min, washed with T-cell medium and then resuspended in TH9402-free T-cell medium. Cells were allowed to efflux TH9402 at 37° C. in dark in 10 ml of T cell medium for 2 h. Cells were centrifuged and re-suspended in fresh medium. Each sample was then plated in 2 wells of two different 6-well plates. One plate was left unexposed to light and the second plate was exposed for 1 h to light (1000×10 Lux units) from an LED lamp. Alternatively, light treatment can be achieved by exposure to a fluorescent light-scanning device (PDCT-Xerox Series 4, Theratechnologies) delivering 5 J/cm^2 at wavelength of 514 nm. After light exposure, cells were incubated in the XVIVO T cell medium with 5 ng/ml IL7 at 37° C. for 2 days in a 5% CO2 incubator. After 2 days, an aliquot of the cells were stained at 4° C. for 40 min with DiOC2(3) (60 ng/ml) in 10 ml RPMI with 10% FBS medium. DiOC2(3) is a known substrate of Pgp. Cells were centrifuged, washed, resuspended in 10 ml of dye-free RPMI-10% FBS medium to efflux dye at 37° C. for 90 min. After Dye efflux, the cells were stained with Propidium iodide (PI) and examined by flow cytometry. […] Furthermore, in the group that was treated with the TH9402 compound and then exposed to light, there was further enrichment for Pgp-expressing T cells (from 10% to 80%).
(§2) After 6 days, 250 μl cell aliquot from T cells were stained with DiOC2(3), allowed to efflux the dye and then stained with CD62L-APC, a marker present on human memory stem T cells (TSCM) with stem like properties.
(§3) After 9 days, 1 ml cell aliquot from T cells were stained with DiOC2(3), allowed to efflux the dye and then stained with CD62L-APC, a marker present on human memory stem T cells (TSCM) with stem like properties. Cells were then analyzed by flow cytometry. The % of cells in the different fractions are shown in FIG. 2 and the following table which show there is a significant decline in cell viability following exposure to light in both TH9402-treated and untreated cells.

PBMC = test: Photodynamic TH9402 experiment repeated with PBMC; settings: PBMC rather than purified T cells
T cells [1] = test: Photodynamic cell therapy with TH9402: live T cells by flow cytometry / propidium iodide; settings: for % live cells (Propidium iodide negative): after 9 days
Protocol: as §1, §2, §3

T cells [2] = test: Chemotherapeutic selection of T cells: cell death by propidium iodide staining;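 also: CD3 microbead-isolated T cells cultured with chemotherapy drugs, dead cells scored as propidium iodide-positive by flow cytometry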
Protocol: (§4) T cells were isolated using CD3 microbeads. Cells were resuspended in T cell culture medium and treated under the following conditions. • 1. High dose Vincristine Treatment: Cells were treated with Vincristine (Sigma) at doses of 100, 250, 500, 750, 1000 ng/ml for 24 h. The following day, the medium was changed and cells cultured in Vincristine-free medium. • 2. Intermediate Dose Vincristine Treatment: Cells were treated with vincristine at intermediate doses of 5, 10, 20, 30, 50 ng/ml with continuous exposure of the drug thereafter. • 3. Low dose Vincristine Treatment: Cells were treated with vincristine at low doses 0.5, 1, 2, 2.5, 3 ng/ml with continuous exposure to the drug thereafter.
(§5) Cells were treated with Etoposide at dose 100, 500, 1000 nM • 6. Cells were treated with Adriamycin (doxorubicin) at 0.1, 0.5, 1 μg/ml
(§6) T cells treated with intermediate and high dose of vincristine were checked for Pgp^+ enrichment by DiOC2(3) efflux assay and cell death by Propidium iodide staining after 2 days of treatment. Cells were analyzed by flow cytometry.

Pgp^+ T cells = test: Chemotherapeutic selection of T cells: Pgp+ enrichment by DiOC2(3) efflux assay; settings: for % Pgp^+ (DiOC2(3)-dull) (out of live cells): 2 days post-treatment; for % Pgp+ (DiOC2(3)-dull) (gated on live cells): 7 days post-treatment; for % pgp+ (out of live cells): 8 days post-treatment;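 as to all read-outs here: CD3-isolated T cells exposed to chemotherapeutics, then loaded with DiOC2(3) and left to efflux dye, PI stained, flow cytometry, Pgp+ cells read as DiOC2(3)-dull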
Protocol: Half (6 million) of the T cells were left untreated while the remaining half were treated with 10 μM of TH9402 compound. Cells were incubated at 37° C. in a water bath in dark for 40 min, washed with T-cell medium and then resuspended in TH9402-free T-cell medium. Cells were allowed to efflux TH9402 at 37° C. in dark in 10 ml of T cell medium for 2 h. Cells were centrifuged and re-suspended in fresh medium. Each sample was then plated in 2 wells of two different 6-well plates. One plate was left unexposed to light and the second plate was exposed for 1 h to light (1000×10 Lux units) from an LED lamp. […] After light exposure, cells were incubated in the XVIVO T cell medium with 5 ng/ml IL7 at 37° C. for 2 days in a 5% CO2 incubator. After 2 days, an aliquot of the cells were stained at 4° C. for 40 min with DiOC2(3) (60 ng/ml) in 10 ml RPMI with 10% FBS medium. DiOC2(3) is a known substrate of Pgp. Cells were centrifuged, washed, resuspended in 10 ml of dye-free RPMI-10% FBS medium to efflux dye at 37° C. for 90 min. After Dye efflux, the cells were stained with Propidium iodide (PI) and examined by flow cytometry.
as §4, §5, §6

[3] = 10 μM TH9402, 1 h exposure to light
[4] = 10 μM TH9402, 1 h exposure to light, after 6 days
[5] = 10 μM TH9402, 1 h exposure to light, after 9 days
[6] = 10 μM TH9402, unexposed to light
[7] = 10 μM TH9402, unexposed to light, after 6 days
[8] = 10 μM TH9402, unexposed to light, after 9 days
[9] = 100 ng/ml for 24 h then drug-free medium
[10] = 250 ng/ml for 24 h then drug-free medium
[11] = 500 ng/ml for 24 h then drug-free medium
[12] = 750 ng/ml for 24 h then drug-free medium
[13] = 1 μg/ml for 24 h then drug-free medium

## COC(=O)c1ccccc1-c1c2ccc(=N)c(Br)c-2oc2c(Br)c(N)ccc12 [TH9402]
Pgp-expressing T cells; [3]
  % Pgp^+ cells (DiOC2(3)-dull): 80%
Pgp-expressing T cells; [4]
  % Pgp^+ (DiOC2(3)-dull cells (based on dye efflux) (gated on live cells)): 70%
  % Pgp^+ (DiOC2(3)-dull), CD62L+ cells (gated on live cells): 69%
Pgp-expressing T cells; [5]
  % Pgp^+ (DiOC2(3)-dull cells (based on dye efflux) (gated on live cells)): 79%
  % Pgp^+ (DiOC2(3)-dull), CD62L+ cells (gated on live cells): 67%
Pgp-expressing T cells; [6]
  % Pgp^+ cells (DiOC2(3)-dull): 10%
Pgp-expressing T cells; [7]
  % Pgp^+ (DiOC2(3)-dull cells (based on dye efflux) (gated on live cells)): 4%
  % Pgp^+ (DiOC2(3)-dull), CD62L+ cells (gated on live cells): 2%
Pgp-expressing T cells; [8]
  % Pgp^+ (DiOC2(3)-dull cells (based on dye efflux) (gated on live cells)): 45%
  % Pgp^+ (DiOC2(3)-dull), CD62L+ cells (gated on live cells): 21%
PBMC
  enrichment of Pgp-expressing cells, experiment repeated with PBMC: Essentially similar results
T cells [1]; 10 μM TH9402, 1 h exposure to light, after 2 days
  % live cells (P1): 10%
T cells [1]; [4]
  % live cells (P1): 14%
T cells [1]; [3]
  % live cells (Propidium iodide negative): 27%
T cells [1]; 10 μM TH9402, unexposed to light, after 2 days
  % live cells (P1): 78%
T cells [1]; [7]
  % live cells (P1): 75%
T cells [1]; [6]
  % live cells (Propidium iodide negative): 79%

## CC[C@]1(O)C[C@H]2CN(CCc3c([nH]c4ccccc34)[C@@](C(=O)OC)(c3cc4c(cc3OC)N(C=O)[C@H]3[C@@](O)(C(=O)OC)[C@H](OC(C)=O)[C@]5(CC)C=CCN6CC[C@]43[C@@H]65)C2)C1 [Vincristine]
T cells [2]; 2 days post-treatment, 5 ng/ml, continuous exposure
  % Cell Death (PI+ cells): 13%
T cells [2]; 2 days post-treatment, 10 ng/ml, continuous exposure
  % Cell Death (PI+ cells): 15%
T cells [2]; 2 days post-treatment, 20 ng/ml, continuous exposure
  % Cell Death (PI+ cells): 15%
T cells [2]; 2 days post-treatment, 30 ng/ml, continuous exposure
  % Cell Death (PI+ cells): 20%
T cells [2]; 2 days post-treatment, 50 ng/ml, continuous exposure
  % Cell Death (PI+ cells): 15%
T cells [2]; 2 days post-treatment, 100 ng/ml for 24 h then drug-free medium
  % Cell Death (PI+ cells): 28%
T cells [2]; 2 days post-treatment, 250 ng/ml for 24 h then drug-free medium
  % Cell Death (PI+ cells): 31%
T cells [2]; 2 days post-treatment, 500 ng/ml for 24 h then drug-free medium
  % Cell Death (PI+ cells): 27%
T cells [2]; 2 days post-treatment, 750 ng/ml for 24 h then drug-free medium
  % Cell Death (PI+ cells): 30%
T cells [2]; 2 days post-treatment, 1 μg/ml for 24 h then drug-free medium
  % Cell Death (PI+ cells): 31%
T cells [2]; 7 days post-treatment, 0.5 ng/ml, continuous exposure
  % Cell Death (PI+ cells): 10%
T cells [2]; 7 days post-treatment, 1 ng/ml, continuous exposure
  % Cell Death (PI+ cells): 12%
T cells [2]; 7 days post-treatment, 2 ng/ml, continuous exposure
  % Cell Death (PI+ cells): 8%
T cells [2]; 7 days post-treatment, 2.5 ng/ml, continuous exposure
  % Cell Death (PI+ cells): 10%
T cells [2]; 7 days post-treatment, 3 ng/ml, continuous exposure
  % Cell Death (PI+ cells): 14%
T cells [2]; 7 days post-treatment, 5 ng/ml, continuous exposure
  % Cell Death (PI+ cells): 9%
T cells [2]; 7 days post-treatment, 10 ng/ml, continuous exposure
  % Cell Death (PI+ cells): 9%
T cells [2]; 7 days post-treatment, 20 ng/ml, continuous exposure
  % Cell Death (PI+ cells): 9%
T cells [2]; 7 days post-treatment, 50 ng/ml, continuous exposure
  % Cell Death (PI+ cells): 14%
T cells [2]; 7 days post-treatment, 100 ng/ml for 24 h then drug-free medium
  % Cell Death (PI+ cells): 16%
T cells [2]; 7 days post-treatment, 250 ng/ml for 24 h then drug-free medium
  % Cell Death (PI+ cells): 25%
T cells [2]; 7 days post-treatment, 500 ng/ml for 24 h then drug-free medium
  % Cell Death (PI+ cells): 26%
T cells [2]; 7 days post-treatment, 750 ng/ml for 24 h then drug-free medium
  % Cell Death (PI+ cells): 29%
T cells [2]; 7 days post-treatment, 1 μg/ml for 24 h then drug-free medium
  % Cell Death (PI+ cells): 23%
Pgp^+ T cells; 5 ng/ml, continuous exposure
  % Pgp^+ (DiOC2(3)-dull) (out of live cells): 8%
  % Pgp+ (DiOC2(3)-dull) (gated on live cells): 8%
Pgp^+ T cells; 10 ng/ml, continuous exposure
  % Pgp^+ (DiOC2(3)-dull) (out of live cells): 9%
  % Pgp+ (DiOC2(3)-dull) (gated on live cells): 10%
Pgp^+ T cells; 20 ng/ml, continuous exposure
  % Pgp^+ (DiOC2(3)-dull) (out of live cells): 9%
  % Pgp+ (DiOC2(3)-dull) (gated on live cells): 10%
Pgp^+ T cells; 30 ng/ml, continuous exposure
  % Pgp^+ (DiOC2(3)-dull) (out of live cells): 11%
Pgp^+ T cells; 50 ng/ml, continuous exposure
  % Pgp^+ (DiOC2(3)-dull) (out of live cells): 10%
  % Pgp+ (DiOC2(3)-dull) (gated on live cells): 9%
Pgp^+ T cells; [9]
  % Pgp^+ (DiOC2(3)-dull) (out of live cells): 11%
  % Pgp+ (DiOC2(3)-dull) (gated on live cells): 13%
Pgp^+ T cells; [10]
  % Pgp^+ (DiOC2(3)-dull) (out of live cells): 11%
  % Pgp+ (DiOC2(3)-dull) (gated on live cells): 11%
Pgp^+ T cells; [11]
  % Pgp^+ (DiOC2(3)-dull) (out of live cells): 13%
  % Pgp+ (DiOC2(3)-dull) (gated on live cells): 9%
Pgp^+ T cells; [12]
  % Pgp^+ (DiOC2(3)-dull) (out of live cells): 14%
  % Pgp+ (DiOC2(3)-dull) (gated on live cells): 10%
Pgp^+ T cells; [13]
  % Pgp^+ (DiOC2(3)-dull) (out of live cells): 14%
  % Pgp+ (DiOC2(3)-dull) (gated on live cells): 18%
Pgp^+ T cells; 0.5 ng/ml, continuous exposure
  % Pgp+ (DiOC2(3)-dull) (gated on live cells): 7%
Pgp^+ T cells; 1 ng/ml, continuous exposure
  % Pgp+ (DiOC2(3)-dull) (gated on live cells): 7%
Pgp^+ T cells; 2 ng/ml, continuous exposure
  % Pgp+ (DiOC2(3)-dull) (gated on live cells): 7%
Pgp^+ T cells; 2.5 ng/ml, continuous exposure
  % Pgp+ (DiOC2(3)-dull) (gated on live cells): 7%
Pgp^+ T cells; 3 ng/ml, continuous exposure
  % Pgp+ (DiOC2(3)-dull) (gated on live cells): 9%
Pgp^+ T cells; higher dose treatments, after 2 days
  enrichment of Pgp^+ cells (in words): modest enrichment

## COc1cccc2c1C(=O)c1c(O)c3c(c(O)c1C2=O)C[C@@](O)(C(=O)CO)C[C@@H]3O[C@H]1C[C@H](N)[C@H](O)[C@H](C)O1 [Adriamycin, doxorubicin]
T cells [2]; 8 days post-treatment, 0.1 μg/ml
  % Cell Death (PI+ cells): 5%
T cells [2]; 8 days post-treatment, 0.5 μg/ml
  % Cell Death (PI+ cells): 7%
T cells [2]; 8 days post-treatment, 1 μg/ml
  % Cell Death (PI+ cells): 12%
Pgp^+ T cells; 1 μg/ml, after 8 days of treatment
  enrichment of Pgp^+ or DiOC2(3)-dull cells (in words): significant enrichment
Pgp^+ T cells; 0.1 μg/ml
  % pgp+ (out of live cells): 16%
Pgp^+ T cells; 0.5 μg/ml
  % pgp+ (out of live cells): 16%
Pgp^+ T cells; 1 μg/ml
  % pgp+ (out of live cells): 27%

## COc1ccc(CCN(C)CCCC(C#N)(c2ccc(OC)c(OC)c2)C(C)C)cc1OC (stereo not drawn) [Verapamil]
T cells [2]; 8 days post-treatment, 1 uM
  % Cell Death (PI+ cells): 4%
T cells [2]; 8 days post-treatment, 5 uM
  % Cell Death (PI+ cells): 3%
T cells [2]; 8 days post-treatment, 10 uM
  % Cell Death (PI+ cells): 3%

## COc1cc([C@@H]2c3cc4c(cc3[C@@H](O[C@@H]3O[C@@H]5CO[C@@H](C)O[C@H]5[C@H](O)[C@H]3O)[C@H]3COC(=O)[C@H]23)OCO4)cc(OC)c1O [Etoposide]
T cells [2]; 8 days post-treatment, 0.1 uM
  % Cell Death (PI+ cells): 5%
T cells [2]; 8 days post-treatment, 1 uM
  % Cell Death (PI+ cells): 5%
T cells [2]; 8 days post-treatment, 0.5 unM
  % Cell Death (PI+ cells): 4%
Pgp^+ T cells; 0.1 uM
  % pgp+ (out of live cells): 15%
Pgp^+ T cells; 1 uM
  % pgp+ (out of live cells): 15%
Pgp^+ T cells; 0.5 unM
  % pgp+ (out of live cells): 16%

## CO[C@H]1C[C@@H]2CC[C@@H](C)[C@@](O)(O2)C(=O)C(=O)N2CCCC[C@H]2C(=O)O[C@H]([C@H](C)C[C@@H]2CC[C@@H](O)[C@H](OC)C2)CC(=O)[C@H](C)/C=C(\C)[C@@H](O)[C@@H](OC)C(=O)[C@H](C)C[C@H](C)/C=C/C=C/C=C/1C [Rapamycin]
T cells [2]; 8 days post-treatment, 100 ng/ml
  % Cell Death (PI+ cells): 11%
Pgp^+ T cells; 100 ng/ml
  % pgp+ (out of live cells): 15%
